Experimental data: publication PMC6753678, “Fueling Open Innovation for Malaria Transmission-Blocking Drugs: Hundreds of Molecules Targeting Early Parasite Mosquito Stages” (Frontiers in Microbiology, 2019)
Read-outs that look alike come from different tables or passages of the source.

Experiments:
[1] = test system: P. falciparum late stage (stages IV-V) gametocytes; experiment: P. falciparum late stage gametocyte ATP depletion assay (Pf GC-ATP); conditions: 1: YES, 0: NO
[2] = test system: HepG2 cells; conditions: ref Almela et al 2016, cited from earlier work; for HepG2 cytoxicity (Pf GCT ATP screen): HepG2 value reported with Pf GCT ATP screen
[3] = test system: HepG2 cells; experiment: HepG2 cytotoxicity assay; conditions: HepG2 cytotoxicity unified across screens
In short: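 Here viability after a 48 h compound incubation (37°C, humidified 5% CO2) is measured by fluorescence and expressed as percent inhibition, with doxorubicin at 50 μM and DMSO as the bounding controls.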

[4] = test system: P. falciparum late stage (stages IV-V) gametocytes; parameters: method as in Almela et al 2016; conditions: ref Almela et al 2016, read-out: Pf GCT ATP IC50, cited from earlier work
[5] = test system: P. berghei ookinete development; conditions: primary screen at 1 μM
[6] = bounds (>) given as plain numbers
[7] = HepG2 data listed with Pf GCT ATP screen
[8] = P. falciparum late stage gametocyte ATP assay
[9] = >10-fold selectivity over cytotoxicity
[10] = P. falciparum late stage gametocyte ATP assay, TCAMS screen

Compound | Is compound selective in assay? Pf GC-ATP active? [1] | HepG2 cytoxicity (Pf GCT ATP screen) [2] | IC50 ([4]; TCAMS library screen) | HepG2 cytoxicity [2, 7] | IC50 [4, 8] | other results
Cl.N=c1n(Cc2ccc(Cl)cc2)c2ccccc2n1CC(O)c1ccc(Cl)c(Cl)c1 (stereo not shown) [TCMDC-123813] | 1 (1: YES) | 6.5 µM | 0.36 µM |  |  | Unified cytotox [3, 6]: 6.50 µM
O=C(Nc1nc(-c2ccccn2)cc2ccccc12)c1cccc(Cl)c1 [TCMDC-123886] | 1 (1: YES) | >25 µM | 0.5 µM |  |  | 
COc1ccc(C[C@H](N)C(=O)N[C@H]2[C@@H](O)[C@H](n3cnc4c(N(C)C)ncnc43)O[C@@H]2CO)cc1.Cl [TCMDC-123927] | 0 (0: NO) | 2.69 µM | 0.65 µM |  |  | Unified cytotox [3, 6]: 2.69 µM
Cc1ccc(C)c(NC(=O)CC2C(=O)N(c3ccccc3)C(=S)N2Cc2ccco2)c1 (stereo not shown) [TCMDC-124000] | 1 (1: YES) | >10 µM | 1.3 µM |  |  | 
Cl.N=c1n(CCN2CCCCC2)c2ccccc2n1CC(O)c1ccc(Cl)c(Cl)c1 (stereo not shown) [TCMDC-124064] | 0 (0: NO) | 5.2 µM | 3.27 µM |  |  | Unified cytotox [3, 6]: 5.20 µM
CCCCCCCn1c(=N)n(CC(O)c2ccc(Cl)c(Cl)c2)c2ccccc21.Cl (stereo not shown) [TCMDC-124065] | 0 (0: NO) | 6 µM | 2.02 µM |  |  | Unified cytotox [3, 6]: 6.00 µM
CCCCOc1ccc(C(=O)C(CCC(CNC(C)(C)C)C(=O)c2ccc(OCCCC)cc2)CNC(C)(C)C)cc1.Cl (stereo not shown) [TCMDC-124120] | 1 (1: YES) | 3.1 µM | 0.3 µM |  |  | Unified cytotox [3, 6]: 3.10 µM
Cc1cc(Nc2ccncc2)n2nc(C)c(-c3ccc(Cl)cc3)c2n1 [TCMDC-124478] | 1 (1: YES) | >50 µM | 0.91 µM |  |  | 
CCc1nn2c(Nc3ccncc3)cc(C)nc2c1-c1ccccc1 [TCMDC-124917] | 1 (1: YES) |  |  | >25 µM | 1.9 µM | 
Cc1cc(Nc2ccncc2)n2nc(C)c(-c3ccccc3Cl)c2n1 [TCMDC-124918] | 1 (1: YES) |  |  | >25 µM | 1.94 µM | 
Cc1nn(CC(C)C)c2sc(C(=O)N3CCN(S(=O)(=O)c4ccc(C#N)cc4)CC3)cc12 [TCMDC-125045] | 1 (1: YES) |  |  | >25 µM | 2.09 µM | 
COc1ccc(NC(=O)C2c3ccccc3C(=O)N(CC(C)C)C2c2cccs2)cc1OC (stereo not shown) [TCMDC-125289] | 1 (1: YES) |  |  | >25 µM | 0.43 µM | 
COc1cccc(C(=O)NC(C=Cc2ccccc2)c2cc(Cl)c3cccnc3c2O)c1 (stereo not shown) [TCMDC-125550] | 1 (1: YES) |  |  | >25 µM | 0.59 µM | 
CCN(CC)/C(=N\C(=N)NCCCCCCNC(=N)/N=C(\Nc1ccc(Cl)cc1)N(CC)CC)Nc1ccc(Cl)cc1 [TCMDC-131807] | 1 (1: YES) |  |  | >25 µM | 0.37 µM | 
CCN(CC)/C(=N/C(=N)Nc1ccc(Cl)cc1)NCCCCCCCCN/C(=N\C(=N)Nc1ccc(Cl)cc1)N(CC)CC [TCMDC-131812] | 1 (1: YES) |  |  | >25 µM | 1.03 µM | 
CCN(CC)/C(=N/C(=N)NCc1ccc(Cl)cc1)NCCCCCCN/C(=N\C(=N)NCc1ccc(Cl)cc1)N(CC)CC [TCMDC-131817] | 1 (1: YES) |  |  | >25 µM | 0.79 µM | 
CCOc1c(CCNCCCCNCCc2ccc3ccccc3c2OCC)ccc2ccccc12.CS(=O)(=O)O [TCMDC-137759] |  |  |  |  |  | Is compound selective in assay? Pf GC-ATP active? [1, 9]: 1 (1: YES); HepG2 cytoxicity ([2]; reported with the Pf GCT ATP screen): <1.56 µM; IC50 [4, 10]: 0.17 µM
Cl.N=C(N)NN=Cc1c2ccccc2c(Cl)c2cc(Cl)ccc12 [TCMDC-137903] |  |  |  |  |  | Is compound selective in assay? Pf GC-ATP active? [1, 9]: 0 (0: NO); Unified cytotox ([3]; >25 set to 25.00): 7.50 µM; % inhibition, Replicate A ([5]; replicate A): 53.67%; % inhibition, Replicate B ([5]; replicate B): 40.83%; IC50 [4, 10]: 2.35 µM
CN1CCN(CCCN(Cc2ccc(-c3cccc(CNC4CCCC4)c3)cc2)C(=O)Nc2ccccc2)CC1.O=C(O)C(F)(F)F [TCMDC-140605] |  |  |  |  |  | Is compound selective in assay? Pf GC-ATP active? [1, 9]: 1 (1: YES); Unified cytotox ([3]; >25 set to 25.00): 14.26 µM; IC50 [4, 10]: 0.18 µM
